Laboratory results reported in patent US8487001B2, “Medium-chain length fatty acids, glycerides and analogues as neutrophil survival and activation factors” (ProMetic BioSciences Inc., priority 2001, dated 2013).
“Also recorded” adds a separate entry of the source.

Assays:
bone marrow cells = test: In vivo chemoprotection: bone marrow cell count; details: for effect on bone marrow cell count, post-treatment: post-treatment per o.s. on day 1, 2, 3 and 4
Protocol: (§1) To examine the immunoprotective effect of MCT or other compounds, mice were pre-treated orally at day-3, -2 and -1 or treated intravenously at day 0 with the test compound. Mice were sacrificed at day +5 by cardiac puncture and cervical dislocation. Then, cell suspensions were prepared from thymus, spleen and bone marrow as follow.
(§2) Tissues were crushed in PBS buffer and contaminating erythrocytes were lysed in ACK buffer (155 mM NH4Cl, 12 mM NaHCO3, 0.1 mM EDTA, pH 7.3) for 5 minutes. Cells were then collected by centrifugation and washed three times in PBS and resuspended in tissue culture medium. Cells were counted on a hemacytometer.
(§3) Chemoprotection studies were performed as described in example 16 except that mice were (post)-treated with MCT, sodium caprylate, sodium caprate or capric acid per o.s. on day 1, 2, 3 and 4.

spleen cells = test: In vivo chemoprotection: spleen cell count
Protocol: as §1, §2, §3

blood cell subsets = test: Blood immunophenotyping (flow cytometry of cell surface markers); type: in vivo, C57BL/6 mice; details: CY (200 mg/kg) immunosuppressed mice
Protocol: (§4) Female, 6- to 8-week old, C57BL/6 mice were pre-treated on day -3, -2 and -1 per o.s. or intravenously at day 0 with different concentrations of MCT. Immunophenotyping was also performed on immunosuppressed animals. […] Mice were sacrificed on day 5 by cardiac puncture. Blood and spleens were collected and cell suspensions prepared and erythrocytes lysed in ACK buffer (155 mM NH4Cl, 12 mM NaHCO3, 0.1 mM EDTA, pH 7.3) for 5 minutes. The cells were washed three times in PBS, pH 7.4 and resuspended in tissue culture medium. The cells were then incubated for 45 minutes on ice with fluorescein isothiocyanate (FITC) or phycoerythrin (PE) conjugated cell surface marker according to the manufacturer's (Gibco/BRL, Cedarlane, Boehringer Mannheim) recommendation. The cells were then washed in PBS, fixed with 1% paraformaldehyde and analyzed with a Coulter XL flow cytometer. Analysis of the cell subsets was undertaken by determination of standard cell surface markers which were as follows: TCR (T-cell receptor), CD4 (T helper), CD8 (T cytotoxic/suppressor), CD11b (macrophage), NK (NK cells) and Ly5 (B-cells). Bone marrow cells were obtained as described in example 15. Cells were stained by a 45 minutes incubation of FITC or PE conjugated cell surface marker according to the manufacturer's recommendation. The cells were then washed in PBS, fixed with 1% paraformaldehyde and analyzed with a Coulter XL flow cytometer. Analysis of the cell subsets was undertaken by determination of standard cell surface markers which were as follows: CD34 (hematopoietic progenitor cells), CD41 (platelets, megakaryocytes), CD13 (myelomonocytic stem cells, myelocytes, promonocytes) and CD38 (lymphoid stem cells, pro-B, pre-B).

spleen cell subsets = test: Spleen immunophenotyping (flow cytometry of cell surface markers); type: in vivo, C57BL/6 mice; details: CY (200 mg/kg) immunosuppressed mice
Protocol: as §4

bone marrow cell subsets = test: Bone marrow immunophenotyping (CD34, CD13, CD41, CD38); type: in vivo, C57BL/6 mice; details: for Bone marrow immunophenotyping: CY-treated mice, test substances compared to cyclophosphamide alone; for % Cells CD13+ (bone marrow) / % Cells CD34+ (bone marrow) / % Cells CD38+ (bone marrow) / % Cells CD41+ (bone marrow): Table 15, CY (200 mg/kg) immunosuppressed mice, CY + test substance (Cyclophosphamide line = CY alone)
Protocol: as §4
The effect of MCT, sodium caprylate, sodium caprate on bone marrow immunophenotyping was assessed by the protocol described in example 26.

[1] = CY-treated mice, protocol of example 16 (pre-treatment)
[2] = Table 8, CY-immunosuppressed mice, CY + test compound 6.25 μM (CY line = CY alone)
[3] = Table 5, CY-treated mice, CY + test compound (CY line = CY alone), protocol of example 16
[4] = Table 6, CY-treated mice, CY + test compound (CY line = CY alone), protocol of example 16
[5] = Table 9, CY-immunosuppressed mice, CY + test compound 6.25 μMole (CY line = CY alone)
[6] = Table 7, CY-treated mice, CY + test compound 6.25 μMole pre-treatment (CY line = CY alone)
[7] = Table 17, CY-treated mice, CY + test compound (CY line = CY alone), protocol of example 16
[8] = Table 10, CY-treated mice, post-treatment per o.s. on day 1, 2, 3 and 4 with test substance 12.5 μM (CY line = CY alone)
[9] = Table 16, CY-treated mice, CY + test compound (CY line = CY alone), protocol of example 16

CCCCCCCCCCCC(=O)OCC(COC(=O)CCCCCCCCCCC)OC(=O)CCCCCCCCCCC [trilaurin]
effect on bone marrow cell count compared to cyclophosphamide treated mice (bone marrow cells; [1]): weak (not significant) activity
Bone Marrow # Cells (×10^6) (bone marrow cells; [2]): 31 ± 6.8 ×10^6
effect on spleen cell count compared to cyclophosphamide treated mice (spleen cells; [1]): weak (not significant) activity
Spleen # Cells (×10^6) (spleen cells; [2]): 28 ± 19.5 ×10^6
Blood Immunophenotyping: effect compared to cyclophosphamide alone (words) (blood cell subsets): no significant effect compared to cyclophosphamide alone
Blood Immunophenotyping: effect compared to cyclophosphamide alone (words) (blood cell subsets; listed as Trilaurin): No significant effect
Spleen Immunophenotyping: effect compared to cyclophosphamide alone (words) (spleen cell subsets): enhance the relative percentage of CD11+; also recorded: induces a significant increase in the LY5-TCR- and NK+ cell subsets
Spleen Immunophenotyping: CD11+ cell subset (relative percentage) (spleen cell subsets; Table 14, compound 6.25 μM): 43.94 ± 4.78
Spleen Immunophenotyping: LY5−TCR− cell subset (relative percentage) (spleen cell subsets; Table 14, compound 6.25 μM): 77.86 ± 2.94
Spleen Immunophenotyping: NK+ cell subset (relative percentage) (spleen cell subsets; Table 14, compound 6.25 μM): 17.46 ± 5.80

CCCCCCCC(=O)O [caprylic acid]
Bone Marrow # Cells (×10^6) (bone marrow cells; [3]): 26 ± 3.58 ×10^6
effect on spleen cell count compared to cyclophosphamide treated mice (spleen cells; [1]): No significant effect
Spleen # Cells (×10^6) (spleen cells; [3]): 28 ± 6.4 ×10^6

CCCCCCCCCC(=O)OCC(COC(=O)CCCCCCCCC)OC(=O)CCCCCCCCC [tricaprin]
effect on bone marrow cell count compared to cyclophosphamide treated mice (bone marrow cells; [1]): efficacious in the proliferation or protection of bone marrow cell counts
Bone Marrow # Cells (×10^6) (bone marrow cells; [4]): 31 ± 3.8 ×10^6
effect on spleen cell count compared to cyclophosphamide treated mice (spleen cells; [1]): No significant effect
Spleen # Cells (×10^6) (spleen cells; [4]): 38 ± 6.8 ×10^6

CCCCCC(=O)[O-].[Na+] [sodium caproate]
Bone Marrow # Cells (×10^6) (bone marrow cells; [5]): 39 ± 17.9 ×10^6
effect on bone marrow cell count compared to cyclophosphamide treated mice (bone marrow cells; mouse, in vivo): weak (not significant) activity
Spleen # Cells (×10^6) (spleen cells; [5]): 35 ± 10.6 ×10^6
effect on spleen cell count compared to cyclophosphamide treated mice (spleen cells; mouse, in vivo): weak (not significant) activity
Blood Immunophenotyping: effect compared to cyclophosphamide alone (words) (blood cell subsets): significantly increase the relative percentage of LY5-TCR- on blood
Blood Immunophenotyping: LY5−TCR− cell subset (relative percentage) (blood cell subsets; Table 14, compound 6.25 μM): 52.43 ± 10.16

CCCCCCCCC(=O)O [nonanoic acid]
effect on bone marrow cell count compared to cyclophosphamide treated mice (bone marrow cells; [1]): weak (not significant) activity on immune cell counts
Bone Marrow # Cells (×10^6) (bone marrow cells; [6]): 36 ± 5.6 ×10^6
effect on spleen cell count compared to cyclophosphamide treated mice (spleen cells; [1]): weak (not significant) activity on immune cell counts
Spleen # Cells (×10^6) (spleen cells; [6]): 28 ± 4 ×10^6

CCCCCCCCCCCCCC(=O)OCC(COC(=O)CCCCCCCCCCCCC)OC(=O)CCCCCCCCCCCCC [trimyristin]
effect on bone marrow cell count compared to cyclophosphamide treated mice (bone marrow cells; [1]): weak (not significant) activity
Bone Marrow # Cells (×10^6) (bone marrow cells; [2]): 31 ± 9.9 ×10^6
effect on spleen cell count compared to cyclophosphamide treated mice (spleen cells; [1]): weak (not significant) activity
Spleen # Cells (×10^6) (spleen cells; [2]): 15 ± 4.6 ×10^6
Blood Immunophenotyping: effect compared to cyclophosphamide alone (words) (blood cell subsets): no significant effect compared to cyclophosphamide alone
Blood Immunophenotyping: effect compared to cyclophosphamide alone (words) (blood cell subsets; listed as Trimyristin): No significant effect
Spleen Immunophenotyping: effect compared to cyclophosphamide alone (words) (spleen cell subsets): enhance the relative percentage of CD11+
Spleen Immunophenotyping: CD11+ cell subset (relative percentage) (spleen cell subsets; Table 14, compound 6.25 μM): 42.94 ± 8.45

CCCCCCCCCC(=O)OC1C(C)OC(OC)C(OC(=O)CCCCCCCCC)C1OC(=O)CCCCCCCCC [β-methyl tridecanoyl-L-fucopyranose, β-O-Methyl-2,3,4,—O,O,O-tridecanoyl-L-fucopyranose]
Bone Marrow # Cells (×10^6) (bone marrow cells; [7]): 34.6 ± 8.5 ×10^6
effect on bone marrow cell count compared to cyclophosphamide treated mice (bone marrow cells; mouse, in vivo): weak (not significant) activity on bone marrow cell counts

O=c1[nH]cc(F)c(=O)[nH]1 [5-FU, 5-fluorouracil, reference compound]
effect of cytotoxic drug on bone marrow cell count compared to the control (bone marrow cells; mouse, in vivo, iv): depressed the bone marrow cell count compared to the control
effect of cytotoxic drug on spleen cell count compared to the control (spleen cells; mouse, in vivo, iv): reduce significantly the spleen cell count compared to the control

CCCCCCCCCC(=O)OC1C(C)OC(OC)C(OC(=O)CCCCCCCCC)C1OC(=O)CCCCCCCCC [α-methyl tridecanoyl-L-fucopyranose, α-O-Methyl-2,3,4,—O,O,O-tridecanoyl-L-fucopyranose]
Bone Marrow # Cells (×10^6) (bone marrow cells; [7]): 30.4 ± 9.3 ×10^6
effect on bone marrow cell count compared to cyclophosphamide treated mice (bone marrow cells; mouse, in vivo): lack of activity

CCCCCCCCCCCC(=O)O [lauric acid]
effect on bone marrow cell count compared to cyclophosphamide treated mice (bone marrow cells; [1]): Significant increases in proliferation or protection of bone marrow and spleen cell counts
Bone Marrow # Cells (×10^6) (bone marrow cells; [6]): 42 ± 7.8 ×10^6
effect on spleen cell count compared to cyclophosphamide treated mice (spleen cells; [1]): Significant increases in proliferation or protection of bone marrow and spleen cell counts
Spleen # Cells (×10^6) (spleen cells; [6]): 32 ± 5 ×10^6

CCCCCCCC(=O)[O-].[Na+] [sodium caprylate]
effect on bone marrow cell count, post-treatment (bone marrow cells; CY-treated mice): significant increase in bone marrow cell count
effect on bone marrow cell count compared to cyclophosphamide treated mice (bone marrow cells; [1]): significant increase in proliferation or protection of bone marrow cell count
Bone Marrow # Cells (×10^6) (bone marrow cells; [8]): 26 ± 5.33 ×10^6
Spleen # Cells (×10^6) (spleen cells; [8]): 36 ± 12.5 ×10^6
Bone marrow immunophenotyping (bone marrow cell subsets): amplifies the number of CD13+ lineage
% Cells CD13+ (bone marrow) (bone marrow cell subsets): 4.9 ± 1.2%
% Cells CD34+ (bone marrow) (bone marrow cell subsets): 11.2 ± 1.3%
% Cells CD38+ (bone marrow) (bone marrow cell subsets): 36 ± 9.7%
% Cells CD41+ (bone marrow) (bone marrow cell subsets): 4.6 ± 1.3%

CCCCCCCCCC(=O)[O-].[Na+] [sodium caprate]
effect on bone marrow cell count, post-treatment (bone marrow cells; CY-treated mice): significant increase in bone marrow cell count
effect on bone marrow cell count compared to cyclophosphamide treated mice (bone marrow cells; [1]): significant increase in proliferation or protection of bone marrow cell count
Bone Marrow # Cells (×10^6) (bone marrow cells; [8]): 29 ± 4.45 ×10^6
Spleen # Cells (×10^6) (spleen cells; [8]): 28 ± 6.3 ×10^6
Bone marrow immunophenotyping (bone marrow cell subsets): amplifies the number of CD13+ lineage
% Cells CD13+ (bone marrow) (bone marrow cell subsets): 4.7 ± 1.7%
% Cells CD34+ (bone marrow) (bone marrow cell subsets): 9.1 ± 3.1%
% Cells CD38+ (bone marrow) (bone marrow cell subsets): 44.3 ± 22.8%
% Cells CD41+ (bone marrow) (bone marrow cell subsets): 3.7 ± 0.7%

CCCCCCCCCC(=O)NC(COC(=O)CCCCCCCCC)COC(=O)CCCCCCCCC [tridecanoyl serinol, 1,2,3-O,N,O-Tridecanoyl serinol]
effect on bone marrow cell count compared to cyclophosphamide treated mice (bone marrow cells; [1]): No significant effect
Bone Marrow # Cells (×10^6) (bone marrow cells; [9]): 28 ± 4.6 ×10^6
effect on spleen cell count compared to cyclophosphamide treated mice (spleen cells; [1]): significantly enhances the spleen cell counts
Spleen # Cells (×10^6) (spleen cells; [9]): 42 ± 8.4 ×10^6

CCCCCCCCCC(=O)OCC [ethyl caprate]
Bone Marrow # Cells (×10^6) (bone marrow cells; Table 18, CY-treated mice, CY + test compound (CY line = CY alone), protocol of example 16): 27.5 ± 4.4 ×10^6

CCCCCC(=O)OCC(COC(=O)CCCCC)OC(=O)CCCCC [tricaproin]
effect on bone marrow cell count compared to cyclophosphamide treated mice (bone marrow cells; [1]): weak (not significant) activity
Bone Marrow # Cells (×10^6) (bone marrow cells; [5]): 29 ± 4.1 ×10^6
effect on spleen cell count compared to cyclophosphamide treated mice (spleen cells; [1]): weak (not significant) activity
Spleen # Cells (×10^6) (spleen cells; [5]): 37 ± 8.7 ×10^6
